{
  "source": "patent US10559456B2",
  "about": "“Systems and methods for analyzing an extracted sample using an immiscible extraction solvent” (priority 2014, dated 2020)",
  "key": {"[1]": {"conditions": "Log P=log([solute]octanol/[solute]water), un-ionized compound; cited from earlier work"}, "cholinesterase (ChE)": {"test_system": "cholinesterase (ChE)", "conditions": "human whole blood diluted 10 times, acetylthiocholine 1.8 mg/mL, 5 min incubation in capillary, room temperature", "method": "For testing of a particular solvent, 5 μL blood sample (diluted) was injected into the capillary with the extraction solvent plug immediately after the mixing the acetylthiocholine into the blood. After the 5 min incubation in capillary, the TCh/ATch ratio was measured using SFME nanoESI MS. For the control, 5 min after the mixing acetylthiocholine into the diluted blood, the sample was taken and analyzed immediately using SFME nanoESI MS with ethyl acetate as the extraction phase. Spray voltage of 1.5 kV was used for nanoESI.\nSFME-nanoESI was applied for monitoring the enzymatic activity of cholinesterase (ChE) in whole blood samples. […] The blood sample was diluted 10 times to slow down the reaction rate as well as to facilitate the slug flows for SFME. The substrate acetylthiocholine iodine was added into the diluted blood sample at a concentration of 1.8 mg/mL, and then 5 μL sample was taken immediately and injected into the capillary with 5 μL extraction phase. The capillary with the sample and the extraction solvent was left in room temperature 25° C. for incubation. The SFME-nanoESI could be performed repeatedly on the same sample and the ratio of the substrate ATCh and the reaction product TCh could be monitored as a function of time to characterize the enzymatic activity of the ChE. […]"}},
  "note": "“And” between values parts separate entries of the source, which are not always exact repeats. Equal values may be shown once.",
  "data": [
    {"smiles": "CN1[C@H]2CC[C@@H]1[C@@H](C(=O)O)[C@@H](OC(=O)c1ccccc1)C2", "note": "[benzoylecgonine]", "values": [
      {"measurement": "Partition coefficient Log P", "setting": "[1]", "value": "−0.6 and −0.59"}
    ]},
    {"smiles": "ClC(Cl)Cl", "note": "[chloroform]", "values": [
      {"measurement": "reduction of ChE activity due to contact with extraction solvent", "setting": "cholinesterase (ChE)", "value": "more than 60%"}
    ]},
    {"smiles": "CCOC(C)=O", "note": "[ethyl acetate]", "values": [
      {"measurement": "reduction of ChE activity due to contact with extraction solvent", "setting": "cholinesterase (ChE)", "value": "minimal"}
    ]},
    {"smiles": "CN[C@@H](C)Cc1ccccc1", "note": "[methamphetamine]", "values": [
      {"measurement": "Partition coefficient Log P", "setting": "[1]", "value": 2.1}
    ]},
    {"smiles": "N[C@@H](Cc1ccccc1)C(=O)O", "note": "[phenylalanine]", "values": [
      {"measurement": "Partition coefficient Log P", "setting": "[1]", "value": "−1.38"}
    ]}
  ]
}
